system: swine adipose tissue; experiment: Inhibition of lipogenesis (incorporation of 14C-glucose into lipid) in swine adipose tissue slices; type: cell-based; conditions: Sus scrofa, 100 micrograms per milliliter, 37° C., 2 hours, glucose-U-14C, insulin, 5% DMSO, triplicate, read-out: Percent Inhibition of lipogenesis compared to control
From the text: The manner in which they cause this effect is not known with certainty; it is believed that they interfere with the synthesis of fatty acids in the tissues. Their effectiveness for this purpose has been ascertained by immersing sales of swine adipose tissue in a liquid medium containing radioactive glucose and the test chemical for a period of time, then isolating the lipid from the treated tissue and determining the incorporation of the radioactive carbon into lipid by means of scintillation counting techniques. These tests were conducted in swine adipose tissues because in swine, the primary site of lipogenesis--i.e., fatty acid synthesis--appears to be adipose tissue.
Described in more detail, the tests were conducted according to the following general procedure:
150 milligrams of slices of swine adipose tissue were incubated at 37° C. for 2 hours with shaking in 3 milliliters of Krebs-Ringer bicarbonate solution containing one-half the normal calcium ion concentration, 60 micromoles of glucose, 0.5 micro-Curie of glucose-U^14 C, and 300 microunits of insulin, and 5% dimethylsulfoxide (DMSO). The test compounds were added as a solution or suspension in DMSO and were present at a concentration of 100 micrograms per milliliter of the incubation mixture.
The incubation was terminated by addition of 0.25 milliliter of 1 N sulfuric acid. The resulting mixture was extracted with a total of 25 milliliters of chloroform/methanol (2:1 v/v). The extracts were washed according to Folch et al. (J. Biol. Chem. 226, 497-509, (1957)), air dried, and counted in a liquid scintillation counter with 15 milliliters of counting fluid (two parts toluene containing 0.4% w/v New England Nuclear Omnifluor/1part Triton X-100). The tests were conducted in triplicate and were accompanied by control tests in which all ingredients,proportions and conditions were the same except that no test compound was included. From the data obtained were calculated the precent inhibition of lipid synthesis by the test compounds in each case. The data obtained from the tests are set out in Table 1,as the percent inhibition of lipogenesis compared to the results obtained in the control tests wherein only the test compound was omitted.

SMILES	inhibition at 100 µg/mL
COc1ccc2cc(C(=O)O)oc2c1OC [Compound 14]	24%
O=C(O)C1Cc2c(Oc3ccccc3)cccc2O1 (stereo not drawn) [Compound 23]	27%
O=C(O)c1cc2c(Oc3ccccc3)cccc2o1 [Compound 9, 4-phenoxy-2-benzofurancarboxylic acid]	83%
COc1ccc(-c2ccc3oc(C(=O)O)cc3c2)cc1 [Compound 17, 5-(4-methoxyphenyl)-2-benzofurancarboxylic acid]	56%
CCCCCCOc1ccc2c(c1)CC(C(=O)O)O2 (stereo not drawn) [Compound 21]	49%
O=C(O)C1Cc2cc(Cc3ccccc3)ccc2O1 (stereo not drawn) [Compound 20]	40%
CCCCCCOc1ccc2oc(C(=O)O)cc2c1 [Compound 7]	78%
O=C(O)C1Cc2ccc(Oc3ccccc3)cc2O1 (stereo not drawn) [Compound 22]	62%
O=C(O)c1cc2cc(-c3ccc(Cl)cc3)ccc2o1 [Compound 12, 5-(4-chlorophenyl)-2-benzofurancarboxylic acid]	55%
CC(=O)Oc1ccc(-c2ccc3oc(C(=O)O)cc3c2)cc1 [Compound 11, 5-(4-(acetyloxy)phenyl)-2-benzofurancarboxylic acid]	80%
O=C(O)c1cc2cc(Cc3ccccc3)ccc2o1 [Compound 8]	87%
O=C(O)C1Cc2cc(-c3ccccc3)ccc2O1 (stereo not drawn) [Compound 2, 2,3-dihydro-5-phenyl-2-benzofurancarboxylic acid]	50%
CCC(C)c1ccc2oc(C(=O)O)cc2c1 (stereo not drawn) [Compound 3]	64%
O=C(O)c1cc2cc(-c3ccccc3)ccc2o1 [Compound 1, 5-phenyl-2-benzofurancarboxylic acid]	49%
CC(=O)c1ccc(-c2ccc3oc(C(=O)O)cc3c2)cc1 [Compound 10, 5-(4-acetylphenyl)-2-benzofurancarboxylic acid]	41%
O=C(c1ccccc1)c1ccc2oc(C(=O)O)cc2c1 [Compound 6]	44%
O=C(O)c1cc2cccc(Cl)c2o1 [Compound 15]	59%
O=C(O)C1Cc2cc(-c3ccc(Cl)cc3)ccc2O1 (stereo not drawn) [Compound 24]	56%
O=C(O)c1cc2cc(-c3ccc(O)cc3)ccc2o1 [Compound 16, 5-(4-hydroxyphenyl)-2-benzofurancarboxylic acid]	30%
COc1cccc2cc(C(=O)O)oc12 [Compound 13]	22%
O=C(O)c1cc2cc(C3CCCCC3)ccc2o1 [Compound 4]	91%
O=C(O)C1Cc2cc(C3CCCCC3)ccc2O1 (stereo not drawn) [Compound 19]	72%
CCC(C)c1ccc2c(c1)CC(C(=O)O)O2 (stereo not drawn) [Compound 18]	35%
O=C(O)c1cc2ccc(Oc3ccccc3)cc2o1 [Compound 5]	86%

Reference: US4213998A, “Inhibition of lipogenesis” (Shell Oil Company, priority 1979, dated 1980)
